From patent EP1501554B1, “BENZOTHIENYL ANALOGUE OF SOMATOSTATINE, SELECTIVE FOR CERTAIN SOMATOSTATIN RECEPTORS” (Advanced Accelerator Applications USA, Inc., priority 2002, dated 2003)
Where two headings read alike, the source gives them in different places.

Assays:
hsst 3 [1] = molecular target: T1, hsst 3 (Homo sapiens, UniProt P32745); test: In vitro binding affinity, transfected cell lines, hsst 3; settings: IC50±SEM; applicant's series, with own SS-28 reference
T1 construct: expressed in transfected cells

hsst 4 [2] = molecular target: T2, hsst 4 (Homo sapiens, UniProt P31391); test: In vitro binding affinity, transfected cell lines, hsst 4; settings: IC50±SEM; applicant's series, with own SS-28 reference
T2 construct: expressed in transfected cells

hsst 5 [3] = molecular target: T3, hsst 5 (Homo sapiens, UniProt P35346); test: In vitro binding affinity, transfected cell lines, hsst 5; settings: IC50±SEM; applicant's series, with own SS-28 reference
T3 construct: expressed in transfected cells

hsst 2 [4] = molecular target: T4, hsst 2 (Homo sapiens, UniProt P30874); test: In vitro binding affinity, transfected cell lines, hsst 2; settings: IC50±SEM; applicant's series, with own SS-28 reference
T4 construct: expressed in transfected cells

hsst 3 [5] = molecular target: T1, hsst 3; settings: IC50±SEM; published series (Reubi et al.), referenced to SS-28; cited from earlier work
hsst 2 [6] = molecular target: T4, hsst 2; settings: IC50±SEM; published series (Reubi et al.), referenced to SS-28; cited from earlier work
hsst 5 [7] = molecular target: T3, hsst 5; settings: IC50±SEM; published series (Reubi et al.), referenced to SS-28; cited from earlier work
hsst 4 [8] = molecular target: T2, hsst 4; settings: IC50±SEM; published series (Reubi et al.), referenced to SS-28; cited from earlier work

T2 sequence (P31391 whole entry): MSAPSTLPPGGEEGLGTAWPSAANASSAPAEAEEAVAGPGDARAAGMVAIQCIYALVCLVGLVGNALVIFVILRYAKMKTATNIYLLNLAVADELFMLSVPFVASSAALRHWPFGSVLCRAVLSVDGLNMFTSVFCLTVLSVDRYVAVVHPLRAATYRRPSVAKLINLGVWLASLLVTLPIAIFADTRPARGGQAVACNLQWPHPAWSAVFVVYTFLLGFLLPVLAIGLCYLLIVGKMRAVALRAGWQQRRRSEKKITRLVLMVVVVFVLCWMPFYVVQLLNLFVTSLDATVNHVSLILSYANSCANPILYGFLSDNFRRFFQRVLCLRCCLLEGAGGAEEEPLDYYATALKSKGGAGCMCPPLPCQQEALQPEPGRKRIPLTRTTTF
T3 sequence (P35346 whole entry): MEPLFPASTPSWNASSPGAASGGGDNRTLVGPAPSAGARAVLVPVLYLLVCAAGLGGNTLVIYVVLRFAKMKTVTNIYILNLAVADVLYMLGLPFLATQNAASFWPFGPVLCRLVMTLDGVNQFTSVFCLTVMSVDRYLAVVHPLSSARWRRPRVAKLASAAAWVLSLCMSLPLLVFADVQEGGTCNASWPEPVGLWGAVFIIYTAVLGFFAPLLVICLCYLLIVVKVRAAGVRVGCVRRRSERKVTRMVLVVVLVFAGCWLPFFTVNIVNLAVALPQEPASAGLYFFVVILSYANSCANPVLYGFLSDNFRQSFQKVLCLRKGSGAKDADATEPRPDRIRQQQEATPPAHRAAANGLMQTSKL
T4 sequence (P30874 whole entry): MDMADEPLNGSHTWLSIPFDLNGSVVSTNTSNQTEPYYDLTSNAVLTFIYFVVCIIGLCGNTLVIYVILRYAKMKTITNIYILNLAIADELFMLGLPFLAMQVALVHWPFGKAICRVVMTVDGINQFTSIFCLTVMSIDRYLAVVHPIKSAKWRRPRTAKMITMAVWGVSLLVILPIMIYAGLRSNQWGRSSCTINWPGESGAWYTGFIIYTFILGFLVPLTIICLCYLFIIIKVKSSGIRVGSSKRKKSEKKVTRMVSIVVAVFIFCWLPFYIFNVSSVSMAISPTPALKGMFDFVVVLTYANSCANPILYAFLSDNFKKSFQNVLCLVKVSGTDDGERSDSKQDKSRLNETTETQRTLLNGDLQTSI
T1 sequence (P32745 whole entry): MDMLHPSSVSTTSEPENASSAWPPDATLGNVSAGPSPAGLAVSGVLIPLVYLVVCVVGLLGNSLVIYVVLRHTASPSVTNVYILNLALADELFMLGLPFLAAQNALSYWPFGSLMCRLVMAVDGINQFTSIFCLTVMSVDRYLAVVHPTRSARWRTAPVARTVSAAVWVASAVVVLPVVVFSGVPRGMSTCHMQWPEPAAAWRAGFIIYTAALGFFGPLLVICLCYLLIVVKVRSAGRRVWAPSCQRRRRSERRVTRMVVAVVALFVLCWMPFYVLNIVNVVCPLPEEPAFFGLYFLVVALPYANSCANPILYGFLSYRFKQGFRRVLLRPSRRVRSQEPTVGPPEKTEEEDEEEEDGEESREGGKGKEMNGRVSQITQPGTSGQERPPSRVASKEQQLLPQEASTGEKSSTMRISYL

| Compound | IC50 (hsst 3 [1]) [nM] | IC50 (hsst 4 [2]) [nM] | IC50 (hsst 5 [3]) [nM] | IC50 (hsst 2 [4]) [nM] | IC50 (hsst 3 [5]) [nM] | IC50 (hsst 2 [6]) [nM] | IC50 (hsst 5 [7]) [nM] | IC50 (hsst 4 [8]) [nM] |
| --- | --- | --- | --- | --- | --- | --- | --- | --- |
| C[C@@H](O)[C@H](NC(=O)[C@@H]1CSSC[C@H](NC(=O)[C@@H](Cc2ccccc2)NC(=O)CN2CCN(CC(=O)O)CCN(CC(=O)O)CCN(CC(=O)O)CC2)C(=O)N[C@@H](Cc2csc3ccccc23)C(=O)N[C@H](Cc2c[nH]c3ccccc23)C(=O)N[C@@H](CCCCN)C(=O)N[C@@H]([C@@H](C)O)C(=O)N1)C(=O)O [cpd. 11, ^111In-labelled DOTA-(D)Phe-cyclo[Cys-3-benzothienylalanyl-(D)Trp-Lys-Thr-Cys]Thr-OH, metal not drawn] | 7 | 110 | 4 | 1.1 |  |  |  |  |
| Y-DOTA-LAN [cpd. 5] |  |  |  |  | 290 ± 105 | 23 ± 5 | 16 ± 3.4 | > 1000 |
| Y-DOTA-OC [compound 4] |  |  |  |  |  | 20 ± 2 |  | > 1000 |
| Y-DOTA-TOC [cpd. 6] |  |  |  |  |  | 11 ± 1.7 |  | > 10000 |
| C[C@@H](O)[C@@H]1NC(=O)[C@H](CCCCN)NC(=O)[C@@H](Cc2c[nH]c3ccccc23)NC(=O)[C@H](Cc2cccc3ccccc23)NC(=O)[C@@H](NC(=O)[C@@H](Cc2ccccc2)NC(=O)CN2CCN(CC(=O)O)CCN(CC(=O)O)CCN(CC(=O)O)CC2)CSSC[C@@H](C(=O)N[C@H](CO)[C@@H](C)O)NC1=O [cpd. 8, Y-DOTA-[1-Nal^3]-OC] | 26 ± 1.9 | > 1000 | 10 ± 1.6 | 3.3 ± 0.2 |  |  |  |  |
| C[C@@H](O)[C@H](NC(=O)[C@@H]1CSSC[C@H](NC(=O)[C@H](N)Cc2ccccc2)C(=O)N[C@@H](Cc2csc3ccccc23)C(=O)N[C@H](Cc2c[nH]c3ccccc23)C(=O)N[C@@H](CCCCN)C(=O)N[C@@H]([C@@H](C)O)C(=O)N1)C(=O)O [compound 13, H-(D)Phe-cyclo[Cys-3-benzothienylalanyl-(D)Trp-Lys-Thr-Cys]-Thr-OH] | 27 | 60 | 2.1 | 0.43 |  |  |  |  |
